# Measured values as given in paper PMC7216583 (Parasites & Vectors, 2020).
# Where a name gives a salt, the structure may show the parent alone.
# Tested on: Toxoplasma gondii RH-2F tachyzoites
# Test: microbe, parasite or virus in culture
# Settings: 72 h, read-out: Parasite inhibition (%) mean
row,SMILES,inhibition of growth at 5 µM [%]
1,COC(=O)[C@H](c1ccccc1Cl)N1CCc2sccc2C1 [Clopidogrel (Plavix)],-0.4
2,c1ccc([C@H]2CN3CCSC3=N2)cc1 [Levamisole Hydrochloride (Ergamisol)],63.9
3,C#Cc1cccc(Nc2ncnc3cc(OC)c(OCCCCCCC(=O)NO)cc23)c1 [CUDC-101],46.2
4,CNC[C@H](O)c1ccc(O)c(O)c1 [L-Adrenaline (Epinephrine)],0.4
5,C#CCN[C@@H]1CCc2ccccc21 [Rasagiline mesylate],13.3

# Same assay, conditions: 72 h, read-out: Parasite inhibition (%) mean, preliminary screen of compound library, mean
row,SMILES,inhibition of growth at 5 µM [%]
1,"Cc1cn([C@@H]2C[C@@H](O)[C@H](CO)O2)c(=O)[nH]c1=O [Telbivudine (Sebivo, Tyzeka)]",12.9
2,O=C1Cc2cc(CCN3CCN(c4nsc5ccccc45)CC3)c(Cl)cc2N1 [Ziprasidone hydrochloride],33.7
3,CC1(C)S[C@@H]2[C@H](NC(=O)[C@H](N)c3ccc(O)cc3)C(=O)N2[C@@H]1C(=O)O [Amoxicillin sodium (Amox)],9.1
4,CC(C)OC(=O)C(C(=O)OC(C)C)=C1SC=CS1 [Malotilate],0.5
5,C[C@H]1CCO[C@H]2Cn3cc(C(=O)NCc4ccc(F)cc4F)c(=O)c(O)c3C(=O)N21 [S/GSK1349572 (GSK1349572)],0.2
6,CC(C)(O)[C@H]1CC[C@@](C)([C@@H]2[C@@H](O)C[C@@]3(C)[C@@H]4C[C@H](O[C@@H]5O[C@H](CO)[C@@H](O)[C@H](O)[C@@H]5O)[C@H]5C(C)(C)[C@@H](O[C@@H]6OC[C@@H](O)[C@H](O)[C@H]6O)CC[C@@]56C[C@]46CC[C@]23C)O1 [Astragaloside A],15.5
7,CCCC(=O)[O-].[Na+] [Sodium butyrate],23.1
8,CNCC(O)c1ccc(O)cc1 (centres unmarked) [Synephrine HCl],3.7
9,CNC(=O)c1cccc(-c2ccc3c(N4CCOC[C@@H]4C)nc(N4CCOC[C@@H]4C)nc3n2)c1 [AZD2014],45.5
10,CO/N=C(\C(=O)N[C@@H]1C(=O)N2C(C(=O)OCOC(=O)C(C)(C)C)=C(/C=C\c3scnc3C)CS[C@H]12)c1csc(N)n1 [Cefditoren pivoxil],0.2
11,C=C1[C@H](CO)[C@@H](O)C[C@@H]1n1cnc2c(=O)[nH]c(N)nc21 [Entecavir hydrate],9.8
12,C[C@H]1C[C@H]2[C@@H]3CCC4=CC(=O)C=C[C@]4(C)[C@@H]3C(=O)C[C@]2(C)[C@]1(O)C(=O)CO [Betapar (Meprednisone)],0.9
13,C=CC(=O)Nc1ccc2ncnc(Nc3cccc(Br)c3)c2c1 [PD168393],-0.1
14,CCNC(=O)CCC/C=C\C[C@@H]1[C@@H](/C=C/[C@@H](O)CCc2ccccc2)[C@H](O)C[C@@H]1O [Bimatoprost],9
15,CCc1cc2c(cc1N1CCC(N3CCOCC3)CC1)C(C)(C)c1[nH]c3cc(C#N)ccc3c1C2=O [CH5424802],46.1
16,CC(S)C(=O)NCC(=O)O (centres unmarked) [Tiopronin (Thiola)],0.9
17,Cc1cc(C#N)cc(C)c1Oc1nc(Nc2ccc(C#N)cc2)nc(N)c1Br [Etravirine (TMC125)],0
18,O=C(Nc1ccc(S(=O)(=O)Nc2ccccc2Cl)c(Cl)c1)c1ccccn1 [VU 0364439],-0.9
19,CC(=O)OCC(=O)[C@]1(O)CC[C@H]2[C@@H]3CCC4=CC(=O)CC[C@]4(C)[C@@H]3C(=O)C[C@@]21C [Cortisone acetate (Cortone)],44.8
20,O=C(O)c1ccc2c(c1)nc(Nc1cccc(Cl)c1)c1ccncc12 [CX-4945 (Silmitasertib)],1.5

row,SMILES,inhibition of growth at 5 µM [%]
1,COc1cc2ncnc(-n3nc(-c4ccccn4)nc3N)c2cc1OC [CP-466722],2.5
2,CCOC(=O)c1c(CSc2ccccc2)n(C)c2cc(Br)c(O)c(CN(C)C)c12 [Arbidol HCl],2.8
3,Cc1nc(NC(=O)N2CCC[C@H]2C(N)=O)sc1-c1csc(C(C)(C)C)n1 [A66],0.9
4,Cc1cnc(Nc2ccc(OCCN3CCCC3)cc2)nc1Nc1cccc(S(=O)(=O)NC(C)(C)C)c1 [TG101348 (SAR302503)],8.5
5,O=C[C@H](O)[C@@H](O)[C@H](O)CO [Xylose],-51.2
6,C=C1/C(=C/C=C2\CCC[C@@]3(C)[C@H]2CC[C@H]3[C@H](C)/C=C/[C@@H](C)C(C)C)C[C@H](O)C[C@@H]1O [Doxercalciferol (Hectorol)],0.1
7,N[C@@H](Cc1ccc(O)c(O)c1)C(=O)O [Levodopa (Sinemet)],12.1
8,CC(C(=O)[O][Ca][O]C(=O)C(C)c1cccc(Oc2ccccc2)c1)c1cccc(Oc2ccccc2)c1 (centres unmarked) [Fenoprofen calcium],27.4
9,CC1=C(C(=O)OC(C)C)C(c2cccc([N+](=O)[O-])c2)C(C(=O)OC2CN(C(c3ccccc3)c3ccccc3)C2)=C(N)N1 (centres unmarked) [Azelnidipine],15.7
10,C[C@@H](NCCCc1cccc(C(F)(F)F)c1)c1cccc2ccccc12 [AMG-073 HCl (Cinacalcet hydrochloride)],2.4
11,CN1CCc2c(c3ccccc3n2Cc2ccc(C(=O)NO)cc2)C1 [Tubastatin A HCl],2.3
12,CCCCCCOC(=O)/N=C(/N)c1ccc(NCc2nc3cc(C(=O)N(CCC(=O)OCC)c4ccccn4)ccc3n2C)cc1 [BIBR-1048 (Dabigatran)],8.4
13,Nc1ncnc2c1c(-c1cnc3[nH]ccc3c1)nn2C1CCCC1 [PP-121],36.8
14,Cc1ccc(O)c([C@H](CCN(C(C)C)C(C)C)c2ccccc2)c1 [Tolterodine tartrate (Detrol LA)],2.2
15,CC(C(=O)O)c1ccc2c(c1)CC(=O)c1ccccc1S2 (centres unmarked) [Zaltoprofen],3.3
16,CCOc1nc2cccc(C(=O)OCc3oc(=O)oc3C)c2n1Cc1ccc(-c2ccccc2-c2nc(=O)o[nH]2)cc1 [Azilsartan Medoxomil (TAK-491)],35.5
17,Cn1c(=O)cc(N2CCC[C@@H](N)C2)n(Cc2ccccc2C#N)c1=O [Alogliptin (SYR-322)],44.1
18,CN(C)C1CCN(C(=O)c2ccc(NC(=O)Nc3ccc(-c4nc(N5CCOCC5)nc(N5CCOCC5)n4)cc3)cc2)CC1 [PF-05212384 (PKI-587)],40.5
19,Cc1nc(NC(=O)N2CCC[C@H]2C(N)=O)sc1-c1ccnc(C(C)(C)C(F)(F)F)c1 [BYL719],47.5

# Same assay, conditions: 72 h, read-out: Parasite inhibition (%) mean, preliminary screen, mean
row,SMILES,inhibition of growth at 5 µM [%]
1,O=C(O)[C@H](CC(=O)N1C[C@H]2CCCC[C@H]2C1)Cc1ccccc1 [Mitiglinide calcium],0.9
2,CNC(=O)c1ccc(N2C(=S)N(c3ccc(C#N)c(C(F)(F)F)c3)C(=O)C2(C)C)cc1F [MDV3100 (Enzalutamide)],35.7
3,NC1=N[C@@]2(c3cc(NC(=O)c4ccc(F)cn4)ccc3F)COC[C@H]2CS1 [LY2886721],35.7
4,CN(C)C(=O)Oc1ccc[n+](C)c1 [Pyridostigmine Bromide (Mestinon)],-6.5
5,O=C(NOC[C@H](O)CO)c1ccc(F)c(F)c1Nc1ccc(I)cc1F [PD0325901],-6.9
6,CNS(=O)(=O)CCc1ccc2[nH]cc(C3CCN(C)CC3)c2c1 [Naratriptan HCl],0.6
7,O=C(/C=C/c1cccc(S(=O)(=O)Nc2ccccc2)c1)NO [Belinostat (PXD101)],65.8
8,C[C@H](Cc1cc2c(c(C(N)=O)c1)N(CCCO)CC2)NCCOc1ccccc1OCC(F)(F)F [Silodosin (Rapaflo)],47.9
9,Cc1ccc(-n2nc(C(C)(C)C)cc2NC(=O)Nc2ccc(OCCN3CCOCC3)c3ccccc23)cc1 [BIRB 796 (Doramapimod)],8.9
10,C[C@H](Cn1cnc2c(N)ncnc21)OCP(=O)(O)O [Tenofovir (Viread)],0
11,c1ccc2c(CCNc3ccc(Nc4ccncc4)cc3)c[nH]c2c1 [JNJ 26854165 (Serdemetan)],48.9
12,O=C(O)Cn1nnc(-c2cc(N3CCC(Oc4cc(F)ccc4Br)CC3)no2)n1 [MK-8245],14.5
13,NC(=O)c1cn(Cc2c(F)cccc2F)nn1 [Rufinamide (Banzel)],1.7
14,CN(C)[C@@H](CCOc1cccc2ccccc12)c1ccccc1 [Dapoxetine HCl (Priligy)],0.8
15,C[C@]12CCC3=C4CCC(=O)C=C4CC[C@H]3[C@@H]1CC[C@@]2(O)CC#N [Dienogest],12
16,COc1ccc(C[C@@H]2c3cc(OC)c(OC)cc3CC[N@+]2(C)CCC(=O)OCCCCCOC(=O)CC[N@@+]2(C)CCc3cc(OC)c(OC)cc3[C@H]2Cc2ccc(OC)c(OC)c2)cc1OC [Cisatracurium besylate (Nimbex)],4.5
17,Cn1cc(-c2ccc3nnc(Sc4ccc5ncccc5c4)n3n2)cn1 [SGX-523],45.5
18,COc1ccc2cccc(CCNC(C)=O)c2c1 [Agomelatine],64.2
19,CC[C@@H]1C(=O)N(C)c2cnc(Nc3ccc(C(=O)NC4CCN(C)CC4)cc3OC)nc2N1C1CCCC1 [BI 2536],0.7
20,O=C(NOCC1CC1)c1ccc(F)c(F)c1Nc1ccc(I)cc1Cl [CI-1040 (PD184352)],0.4
21,CCCC(CCC)C(=O)O [Divalproex sodium],1.4
22,NC(=O)c1ccc(I)c([N+](=O)[O-])c1 [Iniparib (BSI-201)],2.4
23,"N#C[C@@H]1C[C@@H]2C[C@H]2N1C(=O)[C@@H](N)C12CC3CC(CC(O)(C3)C1)C2 [Saxagliptin (BMS-477118,Onglyza)]",9.7
24,NCC1(CC(=O)O)CCCCC1 [Gabapentin HCl],1.7
25,CCOc1cc2ncc(C#N)c(Nc3ccc(OCc4ccccn4)c(Cl)c3)c2cc1NC(=O)/C=C/CN(C)C [Neratinib (HKI-272)],-11.6
26,O=C(NOCC(O)CO)c1cc(Br)c(F)c(F)c1Nc1ccc(I)cc1F (centres unmarked) [PD318088],-12.9
27,Oc1nc(-c2ccc(C(F)(F)F)cc2)nc2c1CSCC2 [XAV-939],-38.8
